Measurements published in patent US12465050B2, “Compositions comprising a pyridine carboxylate herbicide and protoporphyrinogen oxidase (protox) inhibitor herbicides” (priority 2018, dated 2025).

What was measured:
Format in all cases: in vivo
Zea mays (maize) = assay: Greenhouse postemergence phytotoxicity on crop ZEAMX; conditions: Compound A 0, Saflufenacil 11.2 g/ha
From the text: (§1) Greenhouse Trial Methodology—Evaluation of Postemergence Herbicidal Effect
(§2) Seeds of the desired test plant species were planted in a 90:10% v/v (volume/volume) mixture of PRO-MIX® BX (Premier Tech Horticulture, Quakertown, Pa., USA) and PROFILE® GREENS GRADE™ (Profile Products LLC, Buffalo Grove, Ill., USA) planting mixture, which typically has a pH of 5.2 to 6.2 and an organic matter content of at least 50 percent, in plastic pots with a surface area of 103.2 square centimeters (cm^2). In some aspects or embodiments, to help ensure good germination and healthy plants, a fungicide treatment and/or other chemical or physical treatment was applied. The plants were grown for 7-36 days (d) in a greenhouse with an approximate 14-hour (h) photoperiod which was maintained at about 23° C. during the day and 22° C. during the night. Nutrients and water were added on a regular basis and supplemental lighting was provided with overhead metal halide 1000-Watt lamps as necessary. The plants were employed for testing when they reached the second or third true leaf stage.
(§3) Emulsifiable concentrates of each of each pyridine carboxylate herbicide (Compound A or Compound B) were prepared at 100 grams acid equivalent per liter (g ae/L). The emulsifiable concentrates also included a safener, cloquintocet mexyl, at 120 grams active ingredient per liter (g ai/L). […]
(§4) The treated plants and control plants were placed in a greenhouse as described above and watered by sub-irrigation to prevent wash-off of the test compounds. After 20-22 d, the condition of the test plants as compared with that of the control plants was determined visually and scored on a scale of 0 to 100 percent where 0 corresponds to no injury and 100 corresponds to complete kill.

[1] = system: Sorghum vulgare (sorghum); assay: Greenhouse postemergence herbicidal effect on SORVU; conditions: Compound A 0, Saflufenacil 11.2 g/ha
From the text: as §1, §2, §3, §4

[2] = system: Amaranthus retroflexus (pigweed); assay: Greenhouse postemergence herbicidal effect on AMARE; conditions: Compound A 0, Saflufenacil 11.2 g/ha
From the text: as §1, §2
(§5) Emulsifiable concentrates of each of each pyridine carboxylate herbicide (Compound A or Compound B) were prepared at 100 grams acid equivalent per liter (g ae/L). The emulsifiable concentrates also included a safener, cloquintocet mexyl, at 120 grams active ingredient per liter (g ai/L). An aliquot of each emulsifiable concentrate was placed in a 25 mL glass vial and diluted with an aqueous mixture of 1.25% (v/v) ACTIROB® B esterified rapeseed oil (Bayer Crop Science, Research Triangle Park, N.C., USA) or MSO® Concentrate with LECI-TECH® methylated soybean oil (Loveland Products, Loveland, Colo., USA) to obtain concentrated stock solutions at the highest application rate for each herbicide, based upon a 12 milliliter (mL) application volume at a rate of 187 liters per hectare (L/ha). The concentrated stock solutions were further diluted with an aqueous mixture of 1.25% v/v ACTIROB® B or MSO® Concentrate with LECI-TECH® to obtain stock solutions at reduced application rates for each herbicide. Spray solutions of the herbicide combinations (Compound A or Compound B plus PROTOX inhibitor herbicide) were prepared by adding weighed amounts or aliquots of the PROTOX inhibitor herbicides to the stock solutions of Compound A or Compound B to form 12-mL spray solutions in two-way combinations.
(§6) The spray solutions were applied to the plant material with an overhead Mandel track sprayer equipped with 8002E nozzles calibrated to deliver 187 L/ha over an application area of 0.503 square meters (m^2) at a spray height of 18 inches (43 centimeters (cm)) above the average plant canopy. Control plants were sprayed in the same manner with the solvent blank. All pyridine carboxylate herbicide (component a) application rates are given as “g ae/ha” and all PROTOX inhibitor herbicide (component b) application rates are given as “g ai/ha.”
as §4

[3] = system: Rumex obtusifolius (broad-leaf dock); assay: Greenhouse postemergence herbicidal effect on RUMOB
From the text: as §1, §2, §5, §6, §4

[4] = system: Brassica napus (spring rape); assay: Greenhouse postemergence herbicidal effect on BRSNN
From the text: as §1, §2, §5, §6, §4

[5] = system: Triticum aestivum (spring wheat); assay: Greenhouse postemergence phytotoxicity on crop TRZAS
From the text: as §1, §2, §5, §6, §4

[6] = system: Setaria faberi (giant foxtail); assay: Greenhouse postemergence herbicidal effect on SETFA
From the text: as §1, §2, §5, §6, §4

[7] = system: Abutilon theophrasti (velvetleaf); assay: Greenhouse postemergence herbicidal effect on ABUTH; conditions: Compound A 0, Saflufenacil 11.2 g/ha
From the text: as §1, §2, §3, §4

[8] = system: Cirsium arvense (Canadian thistle); assay: Greenhouse postemergence herbicidal effect on CIRAR
From the text: as §1, §2, §5, §6, §4

[9] = system: Cyperus esculentus (nutsedge); assay: Greenhouse postemergence herbicidal effect on CYPES; conditions: Compound A 0, Saflufenacil 11.2 g/ha
From the text: as §1, §2, §3, §4

[10] = system: Viola tricolor (wild pansy); assay: Greenhouse postemergence herbicidal effect on VIOTR
From the text: as §1, §2, §5, §6, §4

Avena fatua (wild oat) = assay: Greenhouse postemergence herbicidal effect on AVEFA; conditions: Compound A 0, Bifenox 90 g/ha
From the text: as §1, §2, §3, §4

[11] = system: Digitaria sanguinalis (large crabgrass); assay: Greenhouse postemergence herbicidal effect on DIGSA; conditions: Compound A 0, Bifenox 90 g/ha
From the text: as §1, §2, §3, §4

Kochia scoparia (kochia) = assay: Greenhouse postemergence herbicidal effect on KCHSC
From the text: as §1, §2, §5, §6, §4

[12] = system: Echinochloa crus-galli (barnyard grass); assay: Greenhouse postemergence herbicidal effect on ECHCG; conditions: Compound A 0, Bifenox 90 g/ha
From the text: as §1, §2, §3, §4

[13] = system: Hordeum vulgare (spring barley); assay: Greenhouse postemergence phytotoxicity on crop HORVS; conditions: Compound A 0, Carfentrazone-ethyl 5 g/ha
From the text: as §1, §2, §5, §6, §4

[14] = system: Salsola kali (Russian thistle); assay: Greenhouse postemergence herbicidal effect on SASKR; conditions: Compound A 0, Carfentrazone-ethyl 5 g/ha
From the text: as §1, §2, §5, §6, §4

[15] = system: Polygonum convolvulus (wild buckwheat); assay: Greenhouse postemergence herbicidal effect on POLCO; conditions: Compound A 0, Carfentrazone-ethyl 5 g/ha
From the text: as §1, §2, §5, §6, §4

[16] = Compound A 0, Saflufenacil 11.2 g/ha
[17] = Compound B 0, Saflufenacil 1 g/ha
[18] = Compound A 0, Carfentrazone-ethyl 5 g/ha

With `CC(C)N(C)S(=O)(=O)NC(=O)c1cc(-n2c(=O)cc(C(F)(F)F)n(C)c2=O)c(F)cc1Cl` [Saflufenacil, 2-chloro-5-[3,6-dihydro-3-methyl-2,6-dioxo-4-(trifluoromethyl)-1(2H)-pyrimidinyl]-4-fluoro-N-[[methyl(1-methylethyl)-amino]sulfonyl]benzamide, reference compound] the “% visual injury, Obs” value (Zea mays (maize)) was 45%, the “% visual injury, Obs” value [1] was 33% and the “% visual injury, Obs” value [2] was 100%. The “% visual injury, Obs” value [3, 16] was 100%, the “% visual injury, Obs” value [4, 16] was 90% and the “% visual injury, Obs” value [5, 16] was 10%. The “% visual injury, Obs” value [6, 16] was 53%, the “% visual injury, Obs” value [6, 17] was 13% and the “% visual injury, Obs” value [7] was 98%. For the same compound, the “% visual injury, Obs” value [8, 17] was 80%, the “% visual injury, Obs” value [9] was 28% and the “% visual injury, Obs” value [10, 17] was 55%.

For `COC(=O)c1cc(Oc2ccc(Cl)cc2Cl)ccc1[N+](=O)[O-]` [Bifenox, methyl 5-(2,4-dichlorophenoxy)-2-nitrobenzoate, reference compound], the “% visual injury, Obs” value (Avena fatua (wild oat)) was 5%, the “% visual injury, Obs” value [11] was 25% and the “% visual injury, Obs” value (Kochia scoparia (kochia); Compound A 0, Bifenox 90 g/ha) was 73%. The “% visual injury, Obs” value ([3]; Compound A 0, Bifenox 90 g/ha) was 0%, the “% visual injury, Obs” value ([4]; Compound A 0, Bifenox 90 g/ha) was 23% and the “% visual injury, Obs” value ([6]; Compound A 0, Bifenox 90 g/ha) was 18%. The “% visual injury, Obs” value ([8]; Compound A 0, Bifenox 90 g/ha) was 18%, the “% visual injury, Obs” value [12] was 15% and the “% visual injury, Obs” value ([10]; Compound A 0, Bifenox 90 g/ha) was 0%.

`CCOC(=O)C(Cl)Cc1cc(-n2nc(C)n(C(F)F)c2=O)c(F)cc1Cl` (stereo not drawn) [Carfentrazone-ethyl, ethyl α,2-dichloro-5-[4-(difluoromethyl)-4,5-dihydro-3-methyl-5-oxo-1H-1,2,4-triazol-1-yl]-4-fluorobenzenepropanoate, reference compound] was tested, and the “% visual injury, Obs” value [13] was 8%, the “% visual injury, Obs” value (Kochia scoparia (kochia); [18]) was 20% and the “% visual injury, Obs” value [5, 18] was 0%. For the same compound, the “% visual injury, Obs” value [14] was 68% and the “% visual injury, Obs” value [15] was 5%.
